The results in this text go back to US10278957B2, “Opioid agonist peptides and uses thereof” (Protagonist Therapeutics, Inc., priority 2017, dated 2019).

In this experiment the target is T1, δ-opioid receptor (DOR) (Homo sapiens, UniProt P41143).
T1 construct: host or cells: cAMP Hunter CHO-K1 OPRD1 Gαi cell line
Briefly: DOR agonist cAMP assay (HitHunter cAMP, forskolin-stimulated). The experiment is classed as cell-based. The method, then: The HitHunter® cAMP chemiluminescent assay kit (DiscoveRx, Cat# 90-0075 SM25) was used to detect cAMP production in cAMP Hunter™ Gαi cell lines over expressing either Human-ORPM1 (Discoverx, Catalog# 95-0107C2) or Human-ORPD1 (DiscoveRx, Catalog# 95-0108C2). Opioid agonist binding to the Gαi receptors inhibits the intracellular cAMP accumulation induced by forskolin, which activates adenylate cyclase and increases intracellular levels of cAMP.
Cells were cultured in media consisting of Ham's F-12 Nutrient Mix (Life Technologies, Catalog#31765035), 10% FBS (Life Technologies, Catalog# 16140-071), 4 mM GlutaMAX (Life Technologies, Catalog#35050-061), […] (Life Technologies), 100 ug/ml of Penn-Strep (Life Technologies) and 0.5 mg/ml Geneticin (Life Technologies, Catalog# 10131-027). The cultures were maintained at 37° C. under 5% CO2.
In preparation for cAMP assay, the cells were seeded at a density of 300,000 cells/ml in 100 ul of media/well in 96-well microplate. Wells that were designated for cAMP standards were left empty.
Opioid agonist serial dilutions were prepared in separate dilution plate (11-point series of 3× (3-fold) dilution) in Cell Assay buffer, including 3× forskolin for Gαi target. For Hunter CHO-K1 OPRM1 or CHO-K1 OPRD1 Gαi Cell Lines, the final forskolin concentration was 20 uM.
15 ul of each 3× opioid agonist serial dilution was added in the presence of forskolin in duplicate to the designated wells. The final concentration of each dilution was at 3× of the final screening concentration. The assay plate was incubated for 30 min, at 37° C. under 5% CO2.
Cellular cAMP concentrations were measured using the HitHunter cAMP Assay kit following the manufacturer's protocol. HitHunter cAMP assay is a gain-of-signal competitive immunoassay based on Enzyme Fragment Complementation (EFC) technology. The kit uses β-galactosidase (β-gal) enzyme split into Enzyme Donor (ED) and Enzyme Acceptor (EA). The cellular cAMP and ED-labelled cAMP compete for anti-cAMP antibody. […] When cellular cAMP level is high, it competes for the anti-cAMP antibody, thereby releasing ED-cAMP to complement with EA to produce a luminescent signal. The amount of signal is directly proportional to the amount of cAMP in cells and can be quantified using cAMP standards. The assay plates were read using a PerkinElmer Envision instrument to detect the chemiluminescence signal in each well (luminescence reader at 0.1 to 1 second/well). Data analysis was performed using Graphpad Prism 7.EC50 was calculated by nonlinear regression, using the four-parameter hill equation.
Background: Cyclic AMP is a second messenger, typically raised through Gs and lowered through Gi signalling.

Square brackets hold non-standard residues; d marks the D form. Peptide text beside a SMILES is read from it. Phe(4-tBu) = CC(C)(C)c1ccc(C[C@H](N)C(=O)O)cc1; Dmt = Cc1cc(O)cc(C)c1C[C@H](N)C(=O)O; dNMeF = CN[C@H](Cc1ccccc1)C(=O)O; αMeF = C[C@](N)(Cc1ccccc1)C(=O)O; Tic = O=C(O)[C@@H]1Cc2ccccc2CN1; β3hF = N[C@H](CC(=O)O)Cc1ccccc1; N(octyl)Gly = CCCCCCCCNCC(=O)O; Nle = CCCC[C@H](N)C(=O)O; Sar = CNCC(=O)O A value given as a limit tells only on which side of the number the result lay.

T1 sequence (P41143 whole entry): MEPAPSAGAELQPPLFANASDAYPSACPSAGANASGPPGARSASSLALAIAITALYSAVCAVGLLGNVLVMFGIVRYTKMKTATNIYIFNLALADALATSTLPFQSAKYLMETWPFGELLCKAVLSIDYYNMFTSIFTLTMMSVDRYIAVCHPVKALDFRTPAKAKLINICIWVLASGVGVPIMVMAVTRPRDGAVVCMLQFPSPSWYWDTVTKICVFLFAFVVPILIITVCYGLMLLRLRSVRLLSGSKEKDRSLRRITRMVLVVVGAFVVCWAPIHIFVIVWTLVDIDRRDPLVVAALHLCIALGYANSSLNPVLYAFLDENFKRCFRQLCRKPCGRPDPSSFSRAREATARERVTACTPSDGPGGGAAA

As for `CCCC[C@@H](C(=O)O)N(C)C(=O)C[C@H](Cc1ccccc1C)NC(=O)CNC(=O)[C@@H](C)NC(=O)[C@@H](N)Cc1c(C)cc(C(N)=O)cc1C` [compound 163], the EC50 – broadly, the concentration giving half of the maximal effect – lay within 1 to 10 nM.

In the case of `Cc1cc(O)cc(C)c1C[C@H](N)C(=O)N[C@H](CCCNC(=N)N)C(=O)N[C@@H](Cc1ccccc1)C(=O)N(C)[C@H](Cc1ccccc1)C(N)=O` [compound 14] (H-[Dmt][dR]F[dNMeF]-NH2), the concentration giving a half-maximal response (EC50) lay within 10 to 50 nM. In turn, `Cc1cc(O)cc(C)c1C[C@H](N)C(=O)N[C@H](CCCNC(=N)N)C(=O)N[C@@H](Cc1ccccc1)C(=O)N[C@@](C)(Cc1ccccc1)C(N)=O` [compound 15] (H-[Dmt][dR]F[αMeF]-NH2) yielded an EC50 of 1 to 10 nM.

`Cc1cc(O)cc(C)c1C[C@H](N)C(=O)N[C@H](C)C(=O)NCC(=O)N1Cc2ccccc2C[C@H]1C(=O)NCC(N)=O` [compound 40] registered a concentration giving a half-maximal response (EC50) of 10 to 50 nM. As for `Cc1cc(O)cc(C)c1C[C@H](N)C(=O)N[C@H](C)C(=O)NCC(=O)N[C@@H](CCc1ccccc1)C(=O)N(C)CC(N)=O` [compound 47], the figure is 1 to 10 nM; as for `CCCCCN(CC(N)=O)C(=O)C[C@H](Cc1ccccc1)NC(=O)CNC(=O)[C@@H](C)NC(=O)[C@@H](N)Cc1c(C)cc(O)cc1C` [compound 124], under 1 nM; as for `C[C@@H](NC(=O)[C@@H](N)Cc1ccc(O)cc1)C(=O)NCC(=O)N[C@H](CC(=O)N(C)CC(N)=O)Cc1ccccc1` [compound 62], 1 to 10 nM. The compound `Cc1cc(O)cc(C)c1C[C@H](N)C(=O)N[C@H](C)C(=O)N[C@H](C(=O)N[C@H](CC(=O)N(C)CC(N)=O)Cc1ccccc1)C(C)C` [compound 69] (H-[Dmt][dA]V[β3hF][Sar]-NH2) registered a concentration giving a half-maximal response (EC50) of 50 to 200 nM. As for `Cc1cc(C(N)=O)cc(C)c1C[C@H](N)C(=O)N(C)[C@@H](CCCNC(=N)N)C(=O)NCC(=O)N[C@H](CC(=O)N(C)CC(N)=O)Cc1ccccc1` [compound 78], the figure is 50 to 200 nM. As for `Cc1cc(O)cc(C)c1C[C@H](N)C(=O)N[C@H](CCCNC(=N)N)C(=O)N1Cc2ccccc2C[C@H]1C(=O)N(C)CC(N)=O` [compound 21] (H-[Dmt][dR][Tic][Sar]-NH2), the figure is over 200 nM; as for `Cc1cc(O)cc(C)c1C[C@H](N)C(=O)N[C@H](CCCNC(=N)N)C(=O)N[C@@H](Cc1ccc(C(C)(C)C)cc1)C(=O)N(C)CC(N)=O` [compound 24] (H-[Dmt][dR][Phe(4-tBu)][Sar]-NH2), over 200 nM.

The compound `Cc1cc(O)cc(C)c1C[C@H](N)C(=O)N[C@@H](C)C(=O)NCC(=O)N[C@H](CC(=O)N(C)CC(=O)O)Cc1ccccc1` [compound 88] registered an EC50 of 10 to 50 nM. `Cc1cc(O)cc(C)c1C[C@H](N)C(=O)N[C@H](C)C(=O)NCC(=O)N[C@@H](Cc1ccc(C#N)cc1)C(=O)NCC(N)=O` [compound 39] registered an EC50 of under 1 nM. To `Cc1cc(O)cc(C)c1C[C@H](N)C(=O)N[C@H](CCCNC(=N)N)C(=O)N[C@@H](Cc1ccccc1)C(=O)N[C@H](C(N)=O)C(C)C` [compound 30] (H-[Dmt][dR]FV-NH2) belongs 1 to 10 nM; to `Cc1cc(C(N)=O)cc(C)c1C[C@H](N)C(=O)N[C@H](CC(=O)O)C(=O)NCC(=O)N[C@H](CC(=O)N(C)CC(N)=O)Cc1ccccc1` [compound 77], under 1 nM; to `CCCC[C@H](NC(=O)[C@H](Cc1ccccc1)NC(=O)[C@@H](CCCN=C(N)N)NC(=O)[C@@H](N)Cc1c(C)cc(O)cc1C)C(N)=O` [compound 28] (H-[Dmt][dR]F[Nle]-NH2), 10 to 50 nM.

As for `Cc1cc(O)cc(C)c1C[C@H](N)C(=O)N(C)[C@@H](CCCNC(=N)N)C(=O)NCC(=O)N[C@H](CC(=O)N(C)CC(N)=O)Cc1ccccc1` [compound 91], the EC50 lay in the range of 50 to 200 nM. As for `CCCCCCCCN(CC(N)=O)C(=O)[C@H](Cc1ccccc1)NC(=O)[C@@H](CCCNC(=N)N)NC(=O)[C@@H](N)Cc1c(C)cc(O)cc1C` [compound 27] (H-[Dmt][dR]F[N(octyl)Gly]-NH2), the figure is 50 to 200 nM.
